This note sets out measurements from patent publication US4841044A, “Cephalosporin derivatives” (Taisho Pharmaceutical Co., Ltd., priority 1985, dated 1989).

In brackets after ≈: the same amount, converted by molar mass. Where two headings read alike, the source gives them in different places.

Series [1] has as its system Escherichia coli NIHJ JC-2. Nature of the series: Antibacterial activity (MIC), agar plate dilution method. In kind it is cell-based. The procedure:
(§1) The antibacterial activity of the compounds of the present invention against various bacteria (inoculum size: 10^6 cells/ml) were tested by the agar plate dilution method, and the results are shown in the following Table 1.

Series [2] has as its system Klebsiella pneumoniae IFO 3317. The description is as above. In kind it is cell-based. The procedure:
as §1

Series [3] concerns Proteus mirabilis IFO 3849. The description is as above. In kind it is cell-based. The procedure:
as §1

The subject of series [4] is Serratia marcescens IID 618. The series is described as above. In kind it is cell-based. The procedure:
as §1

The next series in a line: in vivo. Particulars: rat, blood, oral, 50 mg/kg, male wister rats (7 weeks old), bioassay (Escherichia coli SC507); for concentration at 4 h: Four Hours; for concentration at 1 h: One Hour; for concentration at 2 h: Two Hours. How it is done: Male wister rats (7 weeks old) were administered orally with the test compound, and the change of the concentration of the compound in blood was measured.
Dosage of the test compound:
Quantitative method: Bioassay
(test bacterium: Escherichia coli SC507)

A word on the MIC: it is the lowest concentration that inhibits growth of the organism. With `CCNC(=O)/C=C\SC1=C(C(=O)[O-])N2C(=O)[C@@H](NC(=O)/C(=N\OCC(=O)[O-])c3csc(N)n3)[C@H]2SC1.[Na+].[Na+]`, the MIC in series [1] (Escherichia coli, NIHJJC2) stood at 0.39 µg/mL; in series [2] (Klebsiella pneumoniae, IFO3317), 0.05 µg/mL; in series [3] (Proteus mirabilis, IFO3849), 0.025 µg/mL; in series [4] (Serratia marcescens, IID618), 0.39 µg/mL. In “in vivo”, this compound showed a concentration at 4 h of 24200 ng/mL. This compound also showed a concentration at 1 h in “in vivo” of 26800 ng/mL. In “in vivo”, this compound showed a concentration at 2 h of 34300 ng/mL.
Consider `CN(C)C(=O)/C=C\SC1=C(C(=O)[O-])N2C(=O)[C@@H](NC(=O)/C(=N\OCC(=O)O)c3csc(N)n3)[C@H]2SC1.[Na+]` [A, 7β-{α-(2-aminothiazole-4-yl)-α-[(Z)-carboxymethoxyimino]acetamido}-3-[(Z)-2-N,N-dimethylaminocarbonylvinylthio]-3-cephem-4-carboxylic acid sodium salt], for which the MIC was 0.2 µg/mL in series [1] (Escherichia coli NIHJ JC-2, inoculum size: 10^6 cells/ml, agar plate dilution); 0.05 µg/mL in series [2] (Klebsiella pneumoniae IFO 3317, inoculum size: 10^6 cells/ml, agar plate dilution); under 0.025 µg/mL in series [3] (Proteus mirabilis IFO 3849, inoculum size: 10^6 cells/ml, agar plate dilution); 0.2 µg/mL in series [4] (Serratia marcescens IID 618, inoculum size: 10^6 cells/ml, agar plate dilution).
Regarding `CNC(=O)/C=C\SC1=C(C(=O)O)N2C(=O)[C@@H](NC(=O)/C(=N\OCC(=O)O)c3csc(N)n3)[C@H]2SC1` [C], the MIC in series [1] (NIHJJC2, Escherichia coli NIHJ JC-2, inoculum size: 10^6 cells/ml, agar plate dilution, read-out: MIC) came to 0.2 µg/mL (≈ 0.369 µM); in series [2] (IFO3317, Klebsiella pneumoniae IFO 3317, inoculum size: 10^6 cells/ml, agar plate dilution, read-out: MIC), 0.05 µg/mL (≈ 0.0922 µM); in series [3] (IFO3849, Proteus mirabilis IFO 3849, inoculum size: 10^6 cells/ml, agar plate dilution, read-out: MIC), 0.025 µg/mL (≈ 0.0461 µM); in series [4] (IID618, Serratia marcescens IID 618, inoculum size: 10^6 cells/ml, agar plate dilution, read-out: MIC), 0.39 µg/mL (≈ 0.719 µM). Also, in “in vivo”, the concentration at 4 h came to 22400 ng/mL. This compound had a concentration at 1 h in the series “in vivo” of 20800 ng/mL. Also, the concentration at 2 h in the series “in vivo” worked out at 26600 ng/mL.
On to `CC1=C(C(=O)O)N2C(=O)[C@@H](NC(=O)[C@H](N)c3ccccc3)[C@H]2SC1` [YY, Cefalexin, reference compound], for which the MIC in series [1] (Escherichia coli, NIHJJC2) was 12.5 µg/mL (≈ 36 µM); in series [2] (Klebsiella pneumoniae, IFO3317) it was 6.25 µg/mL (≈ 18 µM); in series [3] (Proteus mirabilis, IFO3849) it was 12.5 µg/mL (≈ 36 µM); in series [4] (Serratia marcescens, IID618), over 100 µg/mL.
